Reference: BindingDB's records for doi:10.1073/pnas.83.22.8784 (The Oregon Health Sciences University, 1986)

What was measured:
[1] = target: T1, Alpha-1A adrenergic receptor (Rattus norvegicus, UniProt P43140)
T1 sequence (P43140 whole entry): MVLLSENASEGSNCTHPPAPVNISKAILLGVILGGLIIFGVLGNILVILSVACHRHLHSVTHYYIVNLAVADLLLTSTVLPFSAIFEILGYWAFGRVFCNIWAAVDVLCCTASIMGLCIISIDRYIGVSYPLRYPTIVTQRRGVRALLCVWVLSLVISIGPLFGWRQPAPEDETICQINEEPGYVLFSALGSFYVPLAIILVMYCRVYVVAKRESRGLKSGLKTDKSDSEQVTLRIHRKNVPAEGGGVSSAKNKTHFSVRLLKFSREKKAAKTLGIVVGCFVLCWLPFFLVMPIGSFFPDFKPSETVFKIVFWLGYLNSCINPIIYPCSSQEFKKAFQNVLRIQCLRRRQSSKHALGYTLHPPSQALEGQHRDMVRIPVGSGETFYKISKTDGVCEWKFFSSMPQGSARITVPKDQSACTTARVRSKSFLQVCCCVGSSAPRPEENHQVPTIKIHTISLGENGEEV

[2] = target: T2, Alpha-2C adrenergic receptor (Rattus norvegicus, UniProt P22086)
T2 sequence (P22086 whole entry): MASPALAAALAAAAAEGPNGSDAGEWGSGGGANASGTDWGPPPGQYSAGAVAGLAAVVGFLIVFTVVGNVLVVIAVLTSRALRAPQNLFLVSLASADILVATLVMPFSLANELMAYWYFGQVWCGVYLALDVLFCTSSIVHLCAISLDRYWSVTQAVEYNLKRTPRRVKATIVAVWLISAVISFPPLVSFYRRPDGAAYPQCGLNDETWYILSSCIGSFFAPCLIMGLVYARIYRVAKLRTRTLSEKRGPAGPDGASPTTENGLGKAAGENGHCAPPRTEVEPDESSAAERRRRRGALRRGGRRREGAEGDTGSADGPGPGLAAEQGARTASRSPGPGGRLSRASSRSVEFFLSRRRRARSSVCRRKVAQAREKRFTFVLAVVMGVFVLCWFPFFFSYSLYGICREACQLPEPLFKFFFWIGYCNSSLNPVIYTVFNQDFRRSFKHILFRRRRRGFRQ

[3] = target: 5-hydroxytryptamine receptor 2A (Rattus norvegicus, UniProt P14842)
Chain of 5-hydroxytryptamine receptor 2A (P14842 whole entry): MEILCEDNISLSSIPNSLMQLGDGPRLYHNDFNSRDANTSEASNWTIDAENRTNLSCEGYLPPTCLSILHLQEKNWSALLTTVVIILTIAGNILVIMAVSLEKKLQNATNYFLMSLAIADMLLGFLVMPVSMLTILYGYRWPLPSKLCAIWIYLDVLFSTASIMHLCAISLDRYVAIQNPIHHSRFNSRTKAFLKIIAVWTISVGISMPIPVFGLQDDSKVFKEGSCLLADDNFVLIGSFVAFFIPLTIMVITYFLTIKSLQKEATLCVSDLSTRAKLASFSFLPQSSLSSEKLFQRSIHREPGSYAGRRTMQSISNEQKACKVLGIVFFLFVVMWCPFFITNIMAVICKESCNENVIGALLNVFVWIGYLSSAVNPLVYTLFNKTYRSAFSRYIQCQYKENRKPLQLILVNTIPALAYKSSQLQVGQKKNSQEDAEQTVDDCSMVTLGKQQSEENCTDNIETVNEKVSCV

Ki [1] [µM]	Ki [2] [µM]	Ki [3] [µM]	SMILES
0.191	0.631	–	Cc1nc2sccn2c(=O)c1CCN1CCC(=C(c2ccc(F)cc2)c2ccc(F)cc2)CC1
0.0724	0.295	–	O=C(c1ccc(F)cc1)C1CCN(CCn2c(=O)[nH]c3ccccc3c2=O)CC1 [3-(2-{4-[(4-fluorophenyl)carbonyl]piperidin-1-yl}ethyl)-1,2,3,4-tetrahydroquinazoline-2,4-dione]
0.00186	0.0759	–	O=C(c1ccc(F)cc1)C1CCN(CCCCn2c(=O)[nH]c3ccccc3c2=O)CC1 [CAS_87051-46-5]
0.12	0.417	0.0045	Cn1c(=O)c2c(ncn2CCN2CCC(C(=O)c3ccc(F)cc3)CC2)n(C)c1=O [NSC_71255]
0.257	0.282	0.006	Cc1nc2ccccn2c(=O)c1CCN1CCC(=C(c2ccc(F)cc2)c2ccc(F)cc2)CC1 [NSC_159037]

SMILES	Ki [1] [µM]	Ki [2] [µM]	Ki [3] [µM]
NC(N)=NN=Cc1c(Cl)cccc1Cl [Guanabenz]	–	> 10	0.2
